Patent US12522587B2, “Cancer treatments targeting cancer stem cells” (Remedy Plan, Inc., priority 2018, dated 2026)

System: AGS human gastric adenocarcinoma cells
Test: Human microarray study (Affymetrix Clariom S) of treated AGS cells
Assay type: cell-based
Conditions: two days
Experimental: AGS human gastric adenocarcinoma cells were treated with compound I-1, or DMSO alone (as a negative control) for two days. After two days, RNA was isolated from compound I-1 treated cells and DMSO treated cells, in duplicate, and subjected to microarray analysis using AFFYMETRIX CLARIOM S microarrays. Data were represented as fold change relative to the compound I-1 treated cells, negative values represented genes that were on higher in compound I-1 treated cells than in DMSO treated cells, and positive values represented genes that were on higher in DMSO treated cells than in compound I-1 treated cells. Values were averaged for the duplicate samples. We included data for the genes whose expression was altered by more than 3 fold, either up or down, in response to compound I-1.
Negative numbers indicate fold upregulation upon drug treatment. Positive numbers indicate fold downregulation upon drug treatment. […] In addition, Chac1, PCK2, and SLC7A11 were all shown to have a tumor promoting activity and to be associated with the more dangerous and lethal forms of cancer, and these three genes were the three most strongly repressed genes measured in this analysis. There were other examples in the data that supported this model, but the overall model was that compound I-1 increased the expression of tumor suppressor genes, and decreased the expression of tumor promoting genes.

SMILES: CCC(=O)N1CCc2cc(-c3ccc(C(=O)NCc4cccnc4)cc3)ccc21 [Compound I-1]
- expression of tumor promoting genes (microarray, overall model): decreased
- expression of tumor suppressor genes (microarray, overall model): increased
- Fold Change ABHD4 (negative = upregulated): −15.57 fold
- Fold Change ACAT2 (negative = upregulated): −5.41 fold
- Fold Change ACSS2 (negative = upregulated): −8.4 fold
- Fold Change AKR1B10 (negative = upregulated): −4.25 fold
- Fold Change AKR1B15 (negative = upregulated): −3.05 fold
- Fold Change AKR1C1 (negative = upregulated): −16.86 fold
- Fold Change AKR1C2 (negative = upregulated): −6.95 fold
- Fold Change AKR1C3 (negative = upregulated): −8.57 fold
- Fold Change ANO6 (negative = upregulated): −3.15 fold
- Fold Change ARHGEF3 (negative = upregulated): −6.93 fold
- Fold Change ARRDC3 (negative = upregulated): −5.99 fold
- Fold Change AVPI1 (negative = upregulated): −3.14 fold
- Fold Change BCL2L11 (negative = upregulated): −4 fold
- Fold Change BCL6 (negative = upregulated): −3.01 fold
- Fold Change BHLHE40 (negative = upregulated): −7.94 fold
- Fold Change CA5B (negative = upregulated): −4.1 fold
- Fold Change CBFA2T2 (negative = upregulated): −3.24 fold
- Fold Change CCNG2 (negative = upregulated): −3.58 fold
- Fold Change CDA (negative = upregulated): −3.79 fold
- Fold Change CDC42EP4 (negative = upregulated): −3.75 fold
- Fold Change CDKN1A (negative = upregulated): −3.11 fold
- Fold Change CNNM2 (negative = upregulated): −3.68 fold
- Fold Change CREBRF (negative = upregulated): −5.55 fold
- Fold Change CSF1 (negative = upregulated): −3.31 fold
- Fold Change CXCL17 (negative = upregulated): −4.1 fold
- Fold Change CYP51A1 (negative = upregulated): −4.74 fold
- Fold Change DBP (negative = upregulated): −10.5 fold
- Fold Change DHCR7 (negative = upregulated): −8.77 fold
- Fold Change DHCR24 (negative = upregulated): −3.44 fold
- Fold Change DNAJB4 (negative = upregulated): −3.09 fold
- Fold Change DNAJB5 (negative = upregulated): −3.84 fold
- Fold Change DNMBP (negative = upregulated): −4 fold
- Fold Change DUSP10 (negative = upregulated): −27.17 fold
- Fold Change EBP (negative = upregulated): −3.69 fold
- Fold Change EDN2 (negative = upregulated): −3 fold
- Fold Change EFNA1 (negative = upregulated): −5.15 fold
- Fold Change EPHA4 (negative = upregulated): −4.56 fold
- Fold Change EYA3 (negative = upregulated): −3.81 fold
- Fold Change F2RL1 (negative = upregulated): −3.37 fold
- Fold Change FAM46A (negative = upregulated): −4.76 fold
- Fold Change FAM46C (negative = upregulated): −3.6 fold
- Fold Change FAM160A1 (negative = upregulated): −3.86 fold
- Fold Change FASN (negative = upregulated): −5.82 fold
- Fold Change FDFT1 (negative = upregulated): −7.56 fold
- Fold Change FGA (negative = upregulated): −13.67 fold
- Fold Change FGG (negative = upregulated): −4.11 fold
- Fold Change G6PD (negative = upregulated): −3.11 fold
- Fold Change GALM (negative = upregulated): −3.17 fold
- Fold Change GATSL2 (negative = upregulated): −3.58 fold
- Fold Change GDF15 (negative = upregulated): −4.83 fold
- Fold Change GNE (negative = upregulated): −3.21 fold
- Fold Change GRHL3 (negative = upregulated): −4.96 fold
- Fold Change HHLA2 (negative = upregulated): −3.59 fold
- Fold Change HK1 (negative = upregulated): −6.34 fold
- Fold Change HMGCR (negative = upregulated): −4.8 fold
- Fold Change HMGCS1 (negative = upregulated): −9.9 fold
- Fold Change HMOX1 (negative = upregulated): −14.23 fold
- Fold Change HSPA1A; HSPA1B (negative = upregulated): −5.34 fold
- Fold Change HSPA1B; HSPA1A (negative = upregulated): −5.04 fold
- Fold Change HSPB8 (negative = upregulated): −4.71 fold
- Fold Change IDI1 (negative = upregulated): −5.77 fold
- Fold Change IL1RN (negative = upregulated): −4.04 fold
- Fold Change ILF2 (negative = upregulated): −3.2 fold
- Fold Change INPP5D (negative = upregulated): −3.12 fold
- Fold Change INSIG1 (negative = upregulated): −8.5 fold
- Fold Change JAG1 (negative = upregulated): −3.31 fold
- Fold Change JAK2 (negative = upregulated): −3.6 fold
- Fold Change KAT6B (negative = upregulated): −3.77 fold
- Fold Change LEMD1 (negative = upregulated): −3.16 fold
- Fold Change LIPG (negative = upregulated): −3.65 fold
- Fold Change LNX1 (negative = upregulated): −4.32 fold
- Fold Change LPIN1; MIR548S (negative = upregulated): −3.22 fold
- Fold Change LY6D (negative = upregulated): −4.81 fold
- Fold Change LYPD3 (negative = upregulated): −4.09 fold
- Fold Change MICA (negative = upregulated): −3.66 fold
- Fold Change MICB (negative = upregulated): −12.71 fold
- Fold Change MID1 (negative = upregulated): −3.25 fold
- Fold Change MSMO1 (negative = upregulated): −9.47 fold
- Fold Change MT1E (negative = upregulated): −3.03 fold
- Fold Change MT1L (negative = upregulated): −3 fold
- Fold Change MTSS1L (negative = upregulated): −3.41 fold
- Fold Change MVD (negative = upregulated): −3.82 fold
- Fold Change MVK (negative = upregulated): −3.11 fold
- Fold Change MXD1 (negative = upregulated): −6.23 fold
- Fold Change MYLIP; MIR4639 (negative = upregulated): −3.88 fold
- Fold Change NEU1 (negative = upregulated): −4.89 fold
- Fold Change NEURL3 (negative = upregulated): −3.41 fold
- Fold Change NFAT5 (negative = upregulated): −3.32 fold
- Fold Change NFKBIA (negative = upregulated): −4.97 fold
- Fold Change NR1D1 (negative = upregulated): −23.3 fold
- Fold Change NR1D2 (negative = upregulated): −3.01 fold
- Fold Change NSDHL (negative = upregulated): −3.29 fold
- Fold Change OCLM (negative = upregulated): −3.22 fold
- Fold Change OSGIN1 (negative = upregulated): −3.63 fold
- Fold Change OTUD1 (negative = upregulated): −3.29 fold
- Fold Change OVOL1 (negative = upregulated): −4.01 fold
- Fold Change PADI1 (negative = upregulated): −3.48 fold
- Fold Change PCDH7 (negative = upregulated): −3.81 fold
- Fold Change PDGFRL (negative = upregulated): −6.65 fold
- Fold Change PERI; MIR6883 (negative = upregulated): −16.75 fold
- Fold Change PGM2L1 (negative = upregulated): −3.76 fold
- Fold Change PIM1 (negative = upregulated): −3.7 fold
- Fold Change PLK2 (negative = upregulated): −3.13 fold
- Fold Change PLPP3 (negative = upregulated): −3.74 fold
- Fold Change POLR2L (negative = upregulated): −3.14 fold
- Fold Change PRDM1 (negative = upregulated): −3.06 fold
- Fold Change PRSS22 (negative = upregulated): −4.6 fold
- Fold Change PSCA (negative = upregulated): −3.18 fold
- Fold Change PVRL1 (negative = upregulated): −3.57 fold
- Fold Change PVRL4 (negative = upregulated): −3.32 fold
- Fold Change RAB30 (negative = upregulated): −3.82 fold
- Fold Change RASSF5 (negative = upregulated): −5.9 fold
- Fold Change RBM26 (negative = upregulated): −6.5 fold
- Fold Change REG1A (negative = upregulated): −3.05 fold
- Fold Change RHOV (negative = upregulated): −4.66 fold
- Fold Change RND1 (negative = upregulated): −5.3 fold
- Fold Change RRAGC (negative = upregulated): −3.01 fold
- Fold Change RSRP1 (negative = upregulated): −3.61 fold
- Fold Change RYBP (negative = upregulated): −3.38 fold
- Fold Change SAT2 (negative = upregulated): −3.99 fold
- Fold Change SC5D (negative = upregulated): −3.39 fold
- Fold Change SEC24D (negative = upregulated): −3.84 fold
- Fold Change SLC20A1 (negative = upregulated): −4.87 fold
- Fold Change SLC25A25 (negative = upregulated): −3.73 fold
- Fold Change SLC30A1 (negative = upregulated): −4.84 fold
- Fold Change SLN (negative = upregulated): −5.63 fold
- Fold Change SPATA5 (negative = upregulated): −3.26 fold
- Fold Change SQLE (negative = upregulated): −4.32 fold
- Fold Change STK17B (negative = upregulated): −6.26 fold
- Fold Change SUSD6 (negative = upregulated): −3.48 fold
- Fold Change TAF5 (negative = upregulated): −3.41 fold
- Fold Change TEF (negative = upregulated): −6.45 fold
- Fold Change TGFBR3 (negative = upregulated): −3.86 fold
- Fold Change TIAL1 (negative = upregulated): −4.62 fold
- Fold Change TKT (negative = upregulated): −3.56 fold
- Fold Change TMEM2 (negative = upregulated): −4.49 fold
- Fold Change TMEM263 (negative = upregulated): −3.01 fold
- Fold Change TMPRSS2 (negative = upregulated): −5.06 fold
- Fold Change TNFSF13B (negative = upregulated): −4.12 fold
- Fold Change TRIM24 (negative = upregulated): −3.01 fold
- Fold Change UGDH (negative = upregulated): −4.16 fold
- Fold Change YBX1 (negative = upregulated): −3.62 fold
- Fold Change ZNF114 (negative = upregulated): −7.07 fold
- Fold Change ZNRF3 (negative = upregulated): −3.14 fold
- Fold Change ZSWIM6 (negative = upregulated): −3.28 fold
- Fold Change SQSTM1 (negative = upregulated, first SQSTM1 entry): −4.27 fold
- Fold Change SQSTM1 (negative = upregulated, second SQSTM1 entry): −3.5 fold
- Fold Change AARS (positive = downregulated): 3.12 fold
- Fold Change AJUBA (positive = downregulated): 8.65 fold
- Fold Change AKTIP (positive = downregulated): 3.39 fold
- Fold Change ARHGEF2 (positive = downregulated): 4.73 fold
- Fold Change ASNS (positive = downregulated): 12.78 fold
- Fold Change ASS1 (positive = downregulated): 7.34 fold
- Fold Change ATF5; MIR4751 (positive = downregulated): 6.55 fold
- Fold Change BRCA1 (positive = downregulated): 4.22 fold
- Fold Change BTC (positive = downregulated): 5.04 fold
- Fold Change C4BPB (positive = downregulated): 3.69 fold
- Fold Change C5orf28 (positive = downregulated): 4.4 fold
- Fold Change C12orf4 (positive = downregulated): 3.45 fold
- Fold Change C14orf79 (positive = downregulated): 3.68 fold
- Fold Change C17orf80 (positive = downregulated): 4.3 fold
- Fold Change CARS (positive = downregulated): 5.53 fold
- Fold Change CCDC125 (positive = downregulated): 3.31 fold
- Fold Change CCDC138 (positive = downregulated): 3.07 fold
- Fold Change CDC7 (positive = downregulated): 3.01 fold
- Fold Change CDH11 (positive = downregulated): 4.69 fold
- Fold Change CDX2 (positive = downregulated): 3.07 fold
